In patent US20250091994A1, “RAS/RAF BINDING INHIBITOR COMPOUND” (NATIONAL UNIVERSITY CORPORATION KOBE UNIVERSITY, priority 2021, published 2025):

Columns and labels:
[1] = molecular target: GTPγS-bound human HRasG12V / human c-Raf-1 Ras binding domain (RBD) (Homo sapiens (Human), UniProt P01112, G12V); test: Ras-Raf binding inhibition ELISA; conditions: anti-HRas antibody C-20; read-out: ELISA IC50 (μM): 1st Ab_C-20
Procedure, shortened: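 GST-c-Raf-1 RBD (aa 50-131) immobilized on glutathione plates, then GTPγS-loaded full-length HRasG12V added with compound (final 10% DMSO), 1 h at 30 °C, pH 7.4 Tris buffer. Bound Ras detected by anti-HRas antibody (C-20 or 259) and HRP secondary, TMB read at OD450; IC50 from inhibition.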

[2] = system: acute lymphoblastic leukemia cells CCRF-CEM (K-RasG12D); test: Cell growth inhibition, suspension cells CCRF-CEM; format: cell-based; conditions: Homo sapiens, 1 μM, 72 hours, read-out: CCRF-CEM (KRasG12D) % inhibition at 1 μM
Procedure, shortened: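 Suspension cells, 2 to 4×10^4 per well, cultured with compound in medium with 0.5% FBS (1% DMSO final) for 72 h at 37° C, 5% CO2. Viable cells counted with Cell Counting Reagent; inhibition calculated relative to controls.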

[3] = system: phosphorylated MEK (pMEK) in HL60 cells; test: Ras-Raf signaling inhibition at culture cell level, pMEK; format: cell-based; conditions: Homo sapiens, HL-60; HL60 (N-RasQ61L), 1 μM test compound, 3 hours
Description: (§1) The Ras-Raf signaling inhibitory activity of the compound of the present invention at a culture cell level was evaluated by the following method.
(§2) The HL60 cells described in Test Example 2 suspended in a medium containing 0.5% (v/v) FBS with each compound solution (final DMSO concentration: 1%), were seeded on a 12-well plate (2 to 4×10^5 cells/well), and the resulting mixture was then cultured at 37° C. in the presence of 5% CO2 for 3 hours.
(§3) After completion of the cell culture, proteins were extracted from the cells, using RIPA Buffer (Nacalai Tesque) containing a mixture of protease inhibitors and phosphatase inhibitors. An equivalent amount of protein was separated by standard SDS-PAGE and was then transferred onto a PVDF membrane. In order to detect the activation (phosphorylation) of MEK and ERK, downstream molecules of the Ras-Raf signaling pathway, the membrane was probed with 1000-fold diluted primary antibodies {phosphorylated MEK (pMEK: #9121), phosphorylated ERK (pERK: #9101), total MEK (tMEK: #9122), and total ERK (tERK: 9102); all from Cell signaling}, and then with a 1000-fold diluted horseradish peroxidase-labeled secondary antibody against rabbit immunoglobulin G. The immunoreactive signals were colored with EzWestLumi One (ATTO), and were then detected by Fusion FX (Vilber). Signal intensity was quantified by pixel counting. Inhibition by the test compound was determined according to the following equation: […]

[4] = system: phosphorylated ERK (pERK) in HL60 cells; test: Ras-Raf signaling inhibition at culture cell level, pERK; format: cell-based; conditions: Homo sapiens, HL-60; HL60 (N-RasQ61L), 1 μM test compound, 3 hours
Description: as §1, §2, §3

Chain of GTPγS-bound human HRasG12V / human c-Raf-1 Ras binding domain (RBD) (P01112 whole entry G12V, the tested form may be a part): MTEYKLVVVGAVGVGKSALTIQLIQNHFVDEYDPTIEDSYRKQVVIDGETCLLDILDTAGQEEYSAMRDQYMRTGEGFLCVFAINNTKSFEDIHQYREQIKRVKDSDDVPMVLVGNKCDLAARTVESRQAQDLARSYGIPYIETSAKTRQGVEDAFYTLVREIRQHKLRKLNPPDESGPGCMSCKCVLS

IC50 [1]: 3.9 µM
SMILES: CC(=O)N1/C(=C\c2nc3cc(C(=O)N4CCOCC4)ccc3s2)C(=O)c2ccccc21 [Example 47, (Z)-1-acetyl-2-((5-(morpholine-4-carbonyl)benzo [d]thiazol-2-yl)-methylene)-indolin-3-one]
inhibition at 1 µM [2]: 74% | inhibition at 1 µM [3]: 88% | inhibition at 1 µM [4]: 94%
